Earlier results on one molecule are cited in US6372715B1, “Use of erythropoientin and iron preparations for producing pharmaceutical combination preparations for treating rheumatic diseases” (Roche Diagnostics GmbH, priority 1997, dated 2002).

As for `[Fe]` [elementary iron], under “oral”, the oral iron resorption result is “about 1 mg per day”. In addition, the “oral iron resorption under extreme loading” value (oral administration of about 300 mg Fe(III)/day) was “less than 3 mg per day”.
